The conditions of series [1]: rat, in vivo; cited from earlier work.
For series [2] the following is noted: human; cited from earlier work.
A further series has as its system kidney. The following applies: mouse, in vivo; cited from earlier work.
The next series concerns kidney cell. The note with it: cited from earlier work.
The next series is described as follows: clinical. The following applies: human, in vivo; for CL renal: CLR (renal clearance). The procedure: Maximum plasma concentration (Cmax), area under the concentration-time curve from time zero to last measurable time point (AUC0–t), area under the concentration-time curve from time zero to infinity (AUC0–inf), area under the concentration-time curve from time zero to tau (AUC0–tau), time to maximum concentration (Tmax), terminal elimination rate constant (kel), terminal half-life (t1/2), terminal clearance (CL), and volume of distribution (Vz) were determined. In addition, area under the concentration-time curve from 0 to 24 h after the start of infusion (AUC0–24) was determined for the SAD phase, and area under the concentration-time curve from time zero to 8 h from start of infusion (AUC0–8) on day 1 and 0 to 48 h (AUC0–48) following the last dose on day 14 as well as predose trough concentrations were determined for the MAD phase. Urine parameters included cumulative amount of drug excreted in successive urine intervals (Ae), renal clearance (CLR), fraction of cumulative fraction of dose recovered in urine as unchanged drug (Fe), and percentage fraction of cumulative fraction of dose recovered in urine as unchanged drug (Fe%). PK parameters were determined by noncompartmental analysis using Phoenix WinNonlin 8.1.
For the SAD phase, blood samples were obtained predose and at 30, 60, 75, 90, 105, 120, and 150 min and at 3, 5, 8, 12, and 24 h following the start of infusion. Urine was collected for PK assessment predose and over the intervals of 0 to 4 h, 4 to 8 h, 8 to 12 h, and 12 to 24 h after the start of infusion.
In the MAD phase, plasma samples for PK analysis were collected (i) on day 1—pre-dose and at 30, 60, 75, 90, 105, 120, and 150 min and at 3, 5, and 8 h following start of the first infusion; (ii) prior to the morning dose (within 10 min) on days 2, 3, 5, 7, 9, 11, and 13; and (iii) predose and 30, 75, 90, 105, 120, and 150 min and 3, 5, 8, and 12 h (day 14), 24, 36 (day 15), and 48 h (day 16) following start of the last infusion. Urine was collected for PK assessment on day 1 predose, over the intervals 0 to 4 h and 4 to 8 h after start of first infusion, and on days 14 and 15 over the intervals 0 to 4 h, 4 to 8 h, 8 to 12 h, and 12 to 24 h after start of day 14 infusion. Total 24-h urine for calculating CrCl was collected from the morning of day −1 to predose on day 1 and on days 15 and 16 over the interval from 24 to 48 h after the start of the day 14 infusion. Urine creatinine concentrations were measured using 24-h collections prior to the first dose on day 1 and over the 24 to 48 h following start of infusion of the last dose (day 14). Plasma and urine samples for SPR206 levels were analyzed using a validated liquid chromatography-tandem mass spectrometry (LC-MS/MS) method. The assay range for SPR206 was 50 to 5,000 ng/ml in plasma and 100 to 50,000 ng/ml in urine. In plasma, assay precision was 1.3 to 7.7%, accuracy was 1.2 to 9.5%, stability was 194 h at 4°C, and reproducibility was 98.4%. In urine, assay precision was 1.7 to 7.5%, accuracy was −4.8 to 7.3%, stability was 147 h at 4°C, and reproducibility was 97.8%.

Positions of bridges follow the written chain, without caps; N, C: chain ends. Non-standard residues stand in square brackets, D forms with d. Residues, ends and D or L forms follow the SMILES beside them. *: point of attachment. X1 = NC[C@@H](CC(=O)*)c1cccc(Cl)c1; Dab = NCC[C@H](N)C(=O)O; Dap = NC[C@H](N)C(=O)O

In the case of `CC(C)C[C@@H]1NC(=O)[C@@H](Cc2ccccc2)NC(=O)[C@H](CCN)NC(=O)[C@@H](NC(=O)[C@H](CN)NC(=O)[C@@H](NC(=O)C[C@H](CN)c2cccc(Cl)c2)[C@@H](C)O)CCNC(=O)[C@H]([C@@H](C)O)NC(=O)[C@H](CCN)NC(=O)[C@H](CCN)NC1=O` [SPR206] (X1-T[Dap][Dab][Dab][dF]L[Dab][Dab]T; lactam 3-C (inferred)), the “exposure in the kidney compared with PMB” value in series [1] was “lower exposure in the kidney of rats”. In series [2], the protein binding was less than 21%. The “histopathological changes in the kidney” value in the series on kidney is recorded as “no histopathological changes in the kidney”. Also, the “kidney cell cytotoxicity compared with PMB” value in the series on kidney cell was “lower kidney cell cytotoxicity”. In addition, the CL renal in the series “clinical” (10 mg) is 0.567 mL/min; in the series “clinical” (25 mg) it was 4 mL/min; in “clinical” (50 mg) it was 13.7 mL/min; in the series “clinical” (100 mg), 25.8 mL/min; in the series “clinical” (150 mg), 35.5 mL/min; in “clinical” (200 mg) it was 29.5 mL/min. For the same compound, the CL renal in the series “clinical” (300 mg) is 35.5 mL/min; in “clinical” (400 mg) it was 32.8 mL/min. In addition, the “CLR (renal clearance)” value in “clinical” (150 mg) is on record as 1.55 ± 0.17 L/h. For the same compound, the “Fe (%)” value in “clinical” (iv, 25 mg) is 5.32 ± 4.38%. For the same compound, the “Fe (fraction of dose recovered in urine as unchanged drug)” value turned out to be 0.05 ± 0.04 in “clinical” (iv, 25 mg); 0.18 ± 0.02 in “clinical” (iv, 50 mg); 0.27 ± 0.05 in “clinical” (iv, 100 mg). The dose excreted in the series “clinical” (iv, 200 mg, Fe (%)) was determined as 35.7 ± 3.85%; in “clinical” (iv, 200 mg, Fe (fraction of dose recovered in urine as unchanged drug)), 36 ± 4%; in the series “clinical” (iv, 300 mg, Fe (fraction of dose recovered in urine as unchanged drug)), 49 ± 8%; in the series “clinical” (iv, 400 mg, Fe (%)), 53.4 ± 6.21%; in the series “clinical” (iv, 400 mg, Fe (fraction of dose recovered in urine as unchanged drug)), 53 ± 6%.
